Laboratory results as given in paper PMC3914206.

How the values were obtained:
Format in all cases: binding
Conditions in all cases: Compound Concentration 10 µM
panel of 442 kinases [1] = molecular target: T1, panel of 442 kinases (Homo sapiens, UniProt P00533, DEL752-759)
T1 construct: purchased KINOMEscan
Description: (§1) We assessed the selectivity of members of this scaffold using the KINOMEscan methodology across a near comprehensive panel of 442 kinases [[18,27]].

panel of 442 kinases [2] = molecular target: T2, panel of 442 kinases (Homo sapiens, UniProt P41743)
T2 construct: purchased KINOMEscan
T2 sequence (P41743 1-596): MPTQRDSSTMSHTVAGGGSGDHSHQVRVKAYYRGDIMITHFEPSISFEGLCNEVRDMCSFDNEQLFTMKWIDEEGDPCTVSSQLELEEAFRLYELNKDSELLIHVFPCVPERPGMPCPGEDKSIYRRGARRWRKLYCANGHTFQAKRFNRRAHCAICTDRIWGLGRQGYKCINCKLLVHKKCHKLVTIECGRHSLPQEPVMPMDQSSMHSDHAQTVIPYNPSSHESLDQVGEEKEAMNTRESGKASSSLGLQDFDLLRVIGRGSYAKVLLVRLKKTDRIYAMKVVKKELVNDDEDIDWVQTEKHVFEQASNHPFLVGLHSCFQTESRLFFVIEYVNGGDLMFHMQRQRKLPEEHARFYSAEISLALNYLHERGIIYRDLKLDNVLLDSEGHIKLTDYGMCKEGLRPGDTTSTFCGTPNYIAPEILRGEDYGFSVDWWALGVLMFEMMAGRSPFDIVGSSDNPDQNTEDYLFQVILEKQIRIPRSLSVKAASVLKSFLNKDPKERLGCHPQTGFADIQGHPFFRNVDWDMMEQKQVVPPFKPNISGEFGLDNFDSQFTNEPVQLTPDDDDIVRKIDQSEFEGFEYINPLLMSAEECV
Description: as §1

panel of 442 kinases [3] = molecular target: T3, panel of 442 kinases (Homo sapiens, UniProt Q8N568)
T3 construct: purchased KINOMEscan
Description: as §1

T1 sequence (P00533 with tags, fused parts or gaps DEL752-759): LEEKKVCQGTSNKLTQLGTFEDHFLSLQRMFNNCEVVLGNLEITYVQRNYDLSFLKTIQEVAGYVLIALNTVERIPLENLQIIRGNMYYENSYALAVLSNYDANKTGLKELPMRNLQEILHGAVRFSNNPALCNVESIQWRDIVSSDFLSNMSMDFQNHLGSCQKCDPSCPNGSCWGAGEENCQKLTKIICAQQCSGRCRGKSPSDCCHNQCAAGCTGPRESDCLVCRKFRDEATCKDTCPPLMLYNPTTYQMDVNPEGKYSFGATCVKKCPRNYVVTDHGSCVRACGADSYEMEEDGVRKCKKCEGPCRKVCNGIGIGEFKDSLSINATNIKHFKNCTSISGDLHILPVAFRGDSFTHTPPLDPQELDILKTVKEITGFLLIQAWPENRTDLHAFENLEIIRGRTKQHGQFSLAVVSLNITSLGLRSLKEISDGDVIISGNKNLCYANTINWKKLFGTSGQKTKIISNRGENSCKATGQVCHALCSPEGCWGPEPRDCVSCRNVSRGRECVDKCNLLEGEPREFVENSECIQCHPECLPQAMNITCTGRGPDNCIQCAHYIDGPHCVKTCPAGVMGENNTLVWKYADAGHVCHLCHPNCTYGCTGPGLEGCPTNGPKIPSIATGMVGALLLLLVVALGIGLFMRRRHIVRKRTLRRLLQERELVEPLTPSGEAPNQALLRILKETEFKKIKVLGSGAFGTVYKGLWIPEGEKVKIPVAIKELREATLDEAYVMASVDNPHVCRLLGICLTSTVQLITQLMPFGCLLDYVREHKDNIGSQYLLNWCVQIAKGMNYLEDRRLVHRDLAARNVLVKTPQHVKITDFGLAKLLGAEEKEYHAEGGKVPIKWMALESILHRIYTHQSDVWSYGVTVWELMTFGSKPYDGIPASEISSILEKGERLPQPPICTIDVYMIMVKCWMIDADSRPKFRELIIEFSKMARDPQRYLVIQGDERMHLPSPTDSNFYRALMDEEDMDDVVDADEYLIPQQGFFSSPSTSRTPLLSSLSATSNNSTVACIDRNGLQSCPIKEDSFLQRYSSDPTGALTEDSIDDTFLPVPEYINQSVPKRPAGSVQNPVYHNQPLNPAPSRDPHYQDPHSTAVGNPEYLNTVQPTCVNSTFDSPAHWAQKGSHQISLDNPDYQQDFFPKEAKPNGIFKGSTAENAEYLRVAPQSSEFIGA
T3 sequence (Q8N568 whole entry): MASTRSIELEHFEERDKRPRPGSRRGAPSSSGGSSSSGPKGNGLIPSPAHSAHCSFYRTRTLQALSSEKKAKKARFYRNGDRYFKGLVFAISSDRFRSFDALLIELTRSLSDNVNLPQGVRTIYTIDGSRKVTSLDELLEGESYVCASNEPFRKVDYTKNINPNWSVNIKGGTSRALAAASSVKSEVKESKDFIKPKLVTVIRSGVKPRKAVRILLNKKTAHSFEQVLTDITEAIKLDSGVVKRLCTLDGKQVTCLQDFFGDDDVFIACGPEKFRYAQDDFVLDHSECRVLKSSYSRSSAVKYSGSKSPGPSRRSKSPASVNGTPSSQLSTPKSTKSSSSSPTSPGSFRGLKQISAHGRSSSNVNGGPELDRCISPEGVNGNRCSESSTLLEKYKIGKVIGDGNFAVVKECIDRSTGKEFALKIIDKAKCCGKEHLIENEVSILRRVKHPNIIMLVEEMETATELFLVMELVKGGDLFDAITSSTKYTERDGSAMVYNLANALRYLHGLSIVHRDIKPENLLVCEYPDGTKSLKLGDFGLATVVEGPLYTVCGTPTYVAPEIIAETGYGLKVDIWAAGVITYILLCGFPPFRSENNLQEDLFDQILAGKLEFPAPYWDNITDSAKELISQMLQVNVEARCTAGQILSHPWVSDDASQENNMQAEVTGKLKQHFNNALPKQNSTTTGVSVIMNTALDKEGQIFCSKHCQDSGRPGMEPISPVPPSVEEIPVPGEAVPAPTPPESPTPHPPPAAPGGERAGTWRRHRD

Row | SMILES | KINOMEscan: EGFR(S752-I759del) (panel of 442 kinases [1]) | KINOMEscan: PRKCI (panel of 442 kinases [2]) | KINOMEscan: DCAMKL2 (panel of 442 kinases [3])
1 | COc1cc(C(=O)N2CCC(N3CCN(C)CC3)CC2)ccc1Nc1ncc2c(n1)N(C)c1ccccc1C(=O)N2C [15 (LRRK2-IN-1)] | 99 | 100 | 0.45
2 | CCOc1cc(C(=O)N2CCC(N3CCN(C)CC3)CC2)ccc1Nc1ncc2c(n1)N(C1CCCC1)c1ccccc1C(=O)N2C [Compound 26] | 86 | 95 | 3.6
3 | COc1cc(C(=O)N2CCC(N3CCN(C)CC3)CC2)ccc1Nc1ncc2c(n1)N1CCc3cccc(c31)C(=O)N2C [Compound 24] | 80 | – | 1.2
4 | COc1cc(C(=O)N2CCC(N3CCN(C)CC3)CC2)ccc1Nc1ncc2c(n1)N(C1CCCC1)c1ccccc1C(=O)N2C [Compound 25, 11-cyclopentyl-2-((2-methoxy-4-(4-(4-methylpiperazin-1-yl)piperidine-1-carbonyl)phenyl)amino)-5-methyl-5H-benzo[e]pyrimido[5,4-b][1,4]diazepin-6(11H)-one] | 80 | 100 | 1.1
